Measured values: patent US20010039041A1, “Immunosuppressive sesbanimide compositions and methods of treatment using same” (priority 1995, published 2001)
Converted amounts (≈) assume the structure as drawn. “And” between values parts separate entries of the source, which are not always exact repeats. Equal values may be shown once. Read-outs that look alike come from different tables or passages of the source.

Legend:
[1] = test system: mixed lymphocytes from Balb/c (H-2d) and C57BI/6 (H-2b) mice; assay: Murine Mixed Lymphocyte Reaction (MLR), 3H-thymidine incorporation; format: cell-based; conditions: for Index Cytotox./Activity: ratio LcV IC50 / MLR IC50; for IC50: Mus musculus, Lymphocyte
Experimental: Mixed Lymphocyte Reaction (MLR)
The MLR is an in vitro test of cellular immunity in which murine lymphocytes from genetically dissimilar animals are cocultured to mutually induce cell proliferation (i.e., two-way MLR method). Mixed cell suspensions, together with the test compound, are incubated for 96 hours and subsequently pulsed for 15 hours with tritiated-thymidine (3H-Thy), a radioisotopically labelled nucleic acid. Tritiated-thymidine is incorporated into the DNA of proliferating cells. Data from the MLR is generated as dpm of radioactivity which is then expressed as a percentage of cellular activity, relative to control, using the following reduced formula: [formula]
A 50% inhibitory concentration (IC50) value was interpolated for sesbanimide containing fractions tested. A ratio between cytotoxicity, as determined from the LcV described below, and activity in the MLR is also presented. A high ratio distinguishes noncytotoxic immunosuppression from general cytotoxicity.
Reconstituted extract (10 μl) is added in two sets of duplicates into wells of a 96-well microtiter plate and evaporated to dryness at room temperature. […] To the other set of sample duplicates is added complete media without cells so as to provide for background color control data. All plated are incubated in a 5% CO2 incubator for 96 hours and pulsed for 15 hours with 100 μl containing 1 μCi/well tritiated-thymidine (^3H-Thy). The plates are harvested onto glass fiber filter discs using an INOTECH harvester. The filter discs are counted directly using an INOTECH dry scintillation counter. The activity of the discs are calculated as a relative proliferative percent of a mean control value as described above.

[2] = test system: murine lymphocytes (Balb/c); assay: Lymphocyte Viability / Cytotoxicity Assay (LcV), MTT; format: cell-based; conditions: Balb/c lymphocytes, MTT viability (cytotoxicity)
Experimental: (§1) Lymphocyte Cytotoxicity (LcV) Assay
(§2) The LCV is a in vitro cytotoxicity assay for murine lymphocytes designed by the investigator. The LCV is similar to the MLR with the exception that only one cell population (Balb/c) is incubated with the test compound to assess cytotoxicity as distinct from the antiproliferative effects of a test compound. That is, unlike the unambiguous determination of immunostimulation from MLR data, a judgement of immunosuppression can not be immediately interpreted. Cytotoxicity (e.g., due to direct cell lysis) from a compound can occur which would alter viability determinations inherent in the generation of MLR data. […] The percent viable cells is determined by the MTT-thiazolyl blue method after a similar incubation to the MLR of lymphocytes with the test sample. MTT is a substrate converted by mitochoridrial enzymes in living cells to a purple, water-insoluble, formazan crystal. If there is no significant reduction in cell viability, as determined by this detection method, then damaged cells are probably not present for low data values generated in the MLR. Colorimetric data from the LCV is calculated as a percentage of viability, relative to control, using the following formula: [formula]
(§3) A 50% viability, or 50% cytotoxicity, (IC50) value was interpolated for sesbanimide containing fractions tested.
(§4) Lymphocytes are prepared as described above for the MLR with the exception that cells from only one murine strain are prepared (BLAB/c). Reconstituted extract (10 μl) is added in two sets of duplicates into wells of a 96-well microtiter plate and evaporated to dryness at room temperature. Lymphocytes (2.5×10^6 cells/ml) are added to one set of duplicates and to wells containing no sample. Media containing no cells are added to the other set of duplicates to provide background color control data. Plated are incubated in a 5% CO2 incubator for 4 hours and pulsed with MTT-thiazolyl blue for 6-8 hours.

[3] = as above; format: cell-based, murine; conditions: Balb/c, mouse, murine lymphocytes (Balb/c); text summary of Table 4
Experimental: as §1, §2, §3, §4

[4] = Toxicology (MTD, LD50) in mice; format: in vivo, mouse; conditions: mouse, in vivo; CD-1 or CB6F1 mice
Experimental: (§5) The MTD establishes the parameters to establish in vivo dosages initiated for studying the Graft-v-Host reaction and skin grafting. The Swiss conventional mouse (Charles River CD-1) is used in a weight range from 18-30 g.
(§6) A saline solution containing 5% non-denatured EtOH and a drop of Tween-80 detergent is used a vehicle for dilution. Stirring and sonication are utilized to effect solution or suspension of the composition. The composition is injected within one hour of preparation. Animals are observed for five days (MTD) after injection for toxic symptoms and/or death. Group weights are taken D0 and D5. Surviving animals are sacrificed on D5 (MTD). A ‘Daily Logsheet’ used in the toxicity studies is appended.

CD-1 or CB6F1 Mice = assay: Toxicology (MTD, LD50) in mice; format: in vivo, mouse
Experimental: as §5, §6

[5] = test system: CB6-F1 mice grafted with Balb/c splenic lymphocytes; conditions: for Alive Day 8 / Optimal Dose: GVHR; for Alive Day 8 / Index: at optimal dose; for Optimal Dose: i.p. per diem for 7 days; for Index: spleen index vs syngeneic control, >1.3 = successful graft rejection
Description: Graft-vs-Host Reaction (GVHR)
The GVHR used for in vivo screening is a modification of the Simonsen's technique. The F1 hybrid host animal is grafted with immunocompetent spleens cells from a parent strain. The host spleen cells are incompatible to grafted donor cells but are themselves not competent to react against them (shared parental genetic determinants). The rejection mechanism in this model is, therefore, from the graft toward the host. The grafted cells, via intraperitoneal injection, migrate to the host's spleen. There they proliferate in response to the difference in genetic determinants inherited from the other parental strain. The index used to measure the success of the GVHR is spleenomegally (increased spleen weight due to cellular proliferation of grafted lymphocytes). An index of 1.0 is equivalent to the spleen weight of syngeneic grafted controls. An index >1.3 (graft index) is considered to be a successful graft rejection of the recipient animal. Any sample that prevents spienomegaly (<graft index) is considered as an immunosuppressive active. Likewise, enhancement of splenomegaly (>graft index) is due either to immunostimulatory synergy of the response or nonspecific immunostimulation. This assay is a cell-mediated type of response and is the direct in vivo correlate of the MLR.
The GVHR is widely used as an in vivo model in transplantation research laboratories. As in models for delayed sensitivity and allograft rejection, it also has clinical implications, especially in bone marrow transplantation. In this situation, immunocompetent lymphocytes transferred with the transplanted bone marrow cells can recirculate into the host bone marrow. These cells from the graft can react against the host (i.e., graft-vs-host disease) with deleterious consequences.
The highest test dose is selected from a previously determined maximum tolerated dose (MTD) resulting from a once only intraperitoneal (i.p.) injection of two animals/dose (e.g., 400, 100, 40 and 10 mg/kg) These animals are followed for five days to allow for possible toxic side effects of the test compound.
In the GVHR, male, CB6-F1 mice (H2^d+H2^b) are grafted by i.p. injection of 50×106 Balb/c (H2^d) splenic lymphocytes conditioned in high-glucose (4500 mg/L) Dulbecco's modified Eagles medium. […] Grafted positive controls, nongrafted negative controls and syngeneic grafted animals all receive vehicle i.p. injections during this time. A standard of cyclophosphamide (200 mg/kg) is used. Experimental animals are sacrificed on D8 and spleens removed. The data is reported as a spleen index compared to the weight of the syngeneic control spleen—both corrected for the total body weights of the animals. In addition, the spleens are homogenized and the lymphocytes enumerated and viabilities determined. The data from both determinations are also expressed as a percent immunomodulation of the positive controls. all data is corrected for nonspecific effects measured from nongrafted animals. Moribund animals are sacrificed immediately.

[6] = test system: Agrobacterium species strain PH-103; assay: Antibiotic sensitivity (Difco sensitivity discs); format: cell-based, Agrobacterium sp.; conditions: strain PH-103, ATCC 231 basal medium, 27° C.
Experimental: The culture was incubated at 27° C. and records of the results were made after suitable incubation times. All media were prepared with 2.7% Instant Ocean Salts and pH was approximately neutral (7-7.4). The description of the culture and test results are as follows: […]

In the case of sesbanimide, the “MLR IC50” value ([1]; murine two-way MLR, 96 h incubation, 15 h 3H-Thy pulse) is reported as less than 0.0075 µg/mL, the “Index Cytotox./Activity” value [1] is reported as >1,746 and the “LcV IC50” value [2] is reported as 13.100 µg/mL.
In the case of `C=C1COC(O)(C2OCOC(C3CC(=O)NC(=O)C3)C2O)C1C` (stereo not drawn) [Sesbanimide, sesbanimide], the “separation of cytotoxicity to biological activity” value ([1]; LcV vs MLR) is reported as greater than 3 log, the IC50 ([1]; in vitro cell-mediated immune response, text summary of Table 4, read-out: biological activity IC50) is reported as 0.00015 to 0.0036 µg/mL (≈ 0.000458 to 0.011 µM) and the IC50 ([1]; murine two-way MLR, 96 h incubation, 15 h 3H-Thy pulse, read-out: MLR IC50) is reported as 0.00015 µg/mL (≈ 0.000458 µM). For the same molecule, the “Index Cytotox./Activity” value [1] was 2,777, the IC50 at 4 h [3] was 0.417 to 3.6 µg/mL (≈ 1.27 to 11 µM) and the IC50 ([2]; Mus musculus, Lymphocyte) was 0.417 µg/mL (≈ 1.27 µM). The LD50 at 7 days [4] was 0.805 mg/kg, the “Maximum Tolerated” value (CD-1 or CB6F1 Mice; CD-1 or CB6F1 mice) was 0.56 mg/kg and the “Alive Day 5” value (CD-1 or CB6F1 Mice; at maximum tolerated dose, CD-1 or CB6F1 mice) was 100%. For the same molecule, the LD50 determination (CD-1 or CB6F1 Mice; between 1.05 and 0.56 mg/kg/total dose, QD 1-7 experiment in CB6F1 mice) was 0.805 mg/kg/total dose, the toxicity (CD-1 or CB6F1 Mice; pure compound at 56, 10.5 and 5.6 mg/kg) was “toxic” and the “total dose showing no toxicity” value (CD-1 or CB6F1 Mice; pure compound, in vivo) was no more than 0.56 mg/kg. For the same molecule, the “Alive Day 8” value [5] was 40%, the “Optimal Dose” value [5] was 0.2 mg/kg and the Index [5] was 0.92.
With `O=P1(N(CCCl)CCCl)NCCCO1` (stereo not drawn) [Cyclophosphamide, cyclophosphamide] the “Alive Day 8” value [5] was 100% and 60%, the “Optimal Dose” value [5] was 200.0 mg/kg and the Index [5] was 0.23 and 0.28.
With `CN[C@H](CC(C)C)C(=O)N[C@H]1C(=O)N[C@@H](CC(N)=O)C(=O)N[C@H]2C(=O)N[C@H]3C(=O)N[C@H](C(=O)N[C@H](C(=O)O)c4cc(O)cc(O)c4-c4cc3ccc4O)[C@H](O)c3ccc(c(Cl)c3)Oc3cc2cc(c3O[C@@H]2O[C@H](CO)[C@@H](O)[C@H](O)[C@H]2O[C@H]2C[C@](C)(N)[C@H](O)[C@H](C)O2)Oc2ccc(cc2Cl)[C@H]1O` [vancomycin] the Antibiotic sensitivity [6] was “resistant”.
For polymyxin, the Antibiotic sensitivity [6] was “resistant”.
For `CCn1cc(C(=O)O)c(=O)c2ccc(C)nc21` [nalidixic acid], the Antibiotic sensitivity [6] was “Sensitive”.
